According to ChEMBL document CHEMBL1909046, “DrugMatrix in vitro pharmacology data”:

How the values were obtained:
[1] = target: T1, Cysteinyl leukotriene receptor 1 (Homo sapiens, UniProt Q9Y271); type: cell membranes, Membrane; conditions: cho-k1; further: in other assays of this panel Not Active means under 50% inhibition at 10 µM
T1 sequence (Q9Y271 whole entry): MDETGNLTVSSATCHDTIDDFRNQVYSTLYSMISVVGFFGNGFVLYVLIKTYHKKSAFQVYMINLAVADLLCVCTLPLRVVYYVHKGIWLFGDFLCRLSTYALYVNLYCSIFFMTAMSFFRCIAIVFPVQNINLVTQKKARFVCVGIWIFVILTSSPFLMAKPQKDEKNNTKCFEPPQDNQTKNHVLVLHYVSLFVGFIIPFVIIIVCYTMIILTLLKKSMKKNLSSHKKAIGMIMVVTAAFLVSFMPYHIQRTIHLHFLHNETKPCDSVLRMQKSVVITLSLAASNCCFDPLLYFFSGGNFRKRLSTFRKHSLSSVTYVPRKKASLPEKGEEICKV

[2] = target: Voltage-gated inwardly rectifying potassium channel KCNH2 (Homo sapiens, UniProt Q12809); conditions: hek293; further: in other assays of this panel Not Active means under 50% inhibition at 10 µM
Voltage-gated inwardly rectifying potassium channel KCNH2, sequence (Q12809 whole entry): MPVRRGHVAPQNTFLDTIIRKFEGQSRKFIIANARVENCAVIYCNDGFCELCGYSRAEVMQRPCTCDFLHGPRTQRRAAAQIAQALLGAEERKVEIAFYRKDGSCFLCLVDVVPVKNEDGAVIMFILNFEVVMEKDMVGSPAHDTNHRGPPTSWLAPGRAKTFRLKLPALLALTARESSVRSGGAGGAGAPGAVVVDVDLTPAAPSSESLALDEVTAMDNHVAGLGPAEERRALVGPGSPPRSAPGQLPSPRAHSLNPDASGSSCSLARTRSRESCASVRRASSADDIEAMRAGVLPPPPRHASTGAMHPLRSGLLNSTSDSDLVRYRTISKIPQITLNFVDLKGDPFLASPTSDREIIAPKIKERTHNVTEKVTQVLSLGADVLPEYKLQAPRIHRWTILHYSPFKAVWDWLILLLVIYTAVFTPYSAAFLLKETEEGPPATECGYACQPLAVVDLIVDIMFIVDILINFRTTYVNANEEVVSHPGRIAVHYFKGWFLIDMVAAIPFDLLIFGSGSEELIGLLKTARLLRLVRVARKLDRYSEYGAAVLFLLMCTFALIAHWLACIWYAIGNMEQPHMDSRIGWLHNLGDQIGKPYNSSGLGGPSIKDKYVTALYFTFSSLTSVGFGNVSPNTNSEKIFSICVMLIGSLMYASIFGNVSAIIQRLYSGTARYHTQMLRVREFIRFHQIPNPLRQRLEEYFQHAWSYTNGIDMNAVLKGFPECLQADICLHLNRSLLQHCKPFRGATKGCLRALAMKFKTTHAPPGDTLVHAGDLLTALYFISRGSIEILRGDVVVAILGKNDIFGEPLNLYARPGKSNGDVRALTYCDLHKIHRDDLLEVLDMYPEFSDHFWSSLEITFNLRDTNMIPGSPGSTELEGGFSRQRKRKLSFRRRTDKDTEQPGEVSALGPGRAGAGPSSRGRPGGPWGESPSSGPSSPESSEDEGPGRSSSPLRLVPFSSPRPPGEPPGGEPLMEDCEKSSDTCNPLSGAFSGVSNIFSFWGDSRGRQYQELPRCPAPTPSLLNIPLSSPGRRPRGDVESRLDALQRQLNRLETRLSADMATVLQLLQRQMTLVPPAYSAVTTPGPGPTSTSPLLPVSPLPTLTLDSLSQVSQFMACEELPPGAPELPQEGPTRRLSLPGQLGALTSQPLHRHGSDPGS

Progesterone receptor = target: T2, Progesterone receptor (Bos taurus, UniProt Q690N0); experiment: DRUGMATRIX: Progesterone radioligand binding (ligand: [3H] R-5020); type: tissue-based, Uterus; conditions: Not Active = under 50% inhibition at 10 µM
T2 sequence (Q690N0 whole entry): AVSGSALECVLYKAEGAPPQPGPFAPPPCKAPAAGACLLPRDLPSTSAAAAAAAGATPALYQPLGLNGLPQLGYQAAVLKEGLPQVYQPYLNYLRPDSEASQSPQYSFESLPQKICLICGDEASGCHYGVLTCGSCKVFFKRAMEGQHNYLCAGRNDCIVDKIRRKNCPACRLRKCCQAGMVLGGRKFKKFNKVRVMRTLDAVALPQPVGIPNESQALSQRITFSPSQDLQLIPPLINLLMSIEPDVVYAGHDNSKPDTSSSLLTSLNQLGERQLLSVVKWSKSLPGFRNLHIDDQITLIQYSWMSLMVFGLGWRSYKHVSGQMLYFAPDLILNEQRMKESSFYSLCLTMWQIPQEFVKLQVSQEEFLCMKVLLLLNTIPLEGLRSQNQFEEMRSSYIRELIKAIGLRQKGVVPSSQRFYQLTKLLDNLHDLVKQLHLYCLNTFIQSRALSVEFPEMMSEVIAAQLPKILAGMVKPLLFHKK

Cannabinoid receptor 1 = Cannabinoid receptor 1 (Homo sapiens, UniProt P21554); type: cell membranes, Membrane; conditions: chem-1; further: in other assays of this panel Not Active means under 50% inhibition at 10 µM
Cannabinoid receptor 1, sequence (P21554 whole entry): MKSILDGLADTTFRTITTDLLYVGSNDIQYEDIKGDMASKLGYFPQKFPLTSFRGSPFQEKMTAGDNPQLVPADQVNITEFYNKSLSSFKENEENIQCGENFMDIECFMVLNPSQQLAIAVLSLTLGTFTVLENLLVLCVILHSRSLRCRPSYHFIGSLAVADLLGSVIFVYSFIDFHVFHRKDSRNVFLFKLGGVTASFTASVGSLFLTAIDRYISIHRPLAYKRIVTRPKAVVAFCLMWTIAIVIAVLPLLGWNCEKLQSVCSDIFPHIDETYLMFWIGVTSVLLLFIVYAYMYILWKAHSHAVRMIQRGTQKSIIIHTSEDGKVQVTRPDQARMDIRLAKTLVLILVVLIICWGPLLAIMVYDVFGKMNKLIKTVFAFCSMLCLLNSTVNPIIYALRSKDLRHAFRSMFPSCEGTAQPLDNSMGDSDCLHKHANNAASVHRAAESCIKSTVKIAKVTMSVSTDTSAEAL

Cytochrome P450 3A4 = Cytochrome P450 3A4 (Homo sapiens, UniProt P08684); conditions: bti-tn-5b1-4; further: in other assays of this panel Not Active means under 50% inhibition at 10 µM
Cytochrome P450 3A4, sequence (P08684 whole entry): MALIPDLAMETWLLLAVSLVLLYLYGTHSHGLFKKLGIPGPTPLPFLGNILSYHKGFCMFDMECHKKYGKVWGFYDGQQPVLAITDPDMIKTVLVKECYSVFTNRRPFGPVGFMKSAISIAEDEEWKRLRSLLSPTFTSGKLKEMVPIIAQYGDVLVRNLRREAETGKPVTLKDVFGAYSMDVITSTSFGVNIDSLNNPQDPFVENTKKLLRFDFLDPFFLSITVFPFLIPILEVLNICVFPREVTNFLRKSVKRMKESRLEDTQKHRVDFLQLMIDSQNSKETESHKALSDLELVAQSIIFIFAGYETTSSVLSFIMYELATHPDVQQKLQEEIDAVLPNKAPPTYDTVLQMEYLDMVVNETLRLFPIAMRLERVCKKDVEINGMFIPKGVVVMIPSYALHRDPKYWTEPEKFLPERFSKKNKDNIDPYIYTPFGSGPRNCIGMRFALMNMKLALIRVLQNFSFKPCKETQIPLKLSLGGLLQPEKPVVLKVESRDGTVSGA

[3] = DRUGMATRIX: Phosphodiesterase PDE3 enzyme inhibition (substrate: [3H]cAMP + cAMP); type: tissue-based, Homo sapiens; conditions: platelet; Not Active = under 50% inhibition at 10 µM
[4] = DRUGMATRIX: Calcium Channel Type L, Phenylalkylamine radioligand binding (ligand: [3H] (-)-Desmethoxyverapamil (D-888)); type: cell membranes, Rattus norvegicus, Wistar, Brain, Membrane; conditions: Not Active = under 50% inhibition at 10 µM
[5] = target: Vascular endothelial growth factor receptor 1 (Homo sapiens, UniProt P17948); experiment: biochemical; type: cell-based, HUVEC; conditions: huvec; further: in other assays of this panel Not Active means under 50% inhibition at 10 µM
Vascular endothelial growth factor receptor 1, sequence (P17948 whole entry): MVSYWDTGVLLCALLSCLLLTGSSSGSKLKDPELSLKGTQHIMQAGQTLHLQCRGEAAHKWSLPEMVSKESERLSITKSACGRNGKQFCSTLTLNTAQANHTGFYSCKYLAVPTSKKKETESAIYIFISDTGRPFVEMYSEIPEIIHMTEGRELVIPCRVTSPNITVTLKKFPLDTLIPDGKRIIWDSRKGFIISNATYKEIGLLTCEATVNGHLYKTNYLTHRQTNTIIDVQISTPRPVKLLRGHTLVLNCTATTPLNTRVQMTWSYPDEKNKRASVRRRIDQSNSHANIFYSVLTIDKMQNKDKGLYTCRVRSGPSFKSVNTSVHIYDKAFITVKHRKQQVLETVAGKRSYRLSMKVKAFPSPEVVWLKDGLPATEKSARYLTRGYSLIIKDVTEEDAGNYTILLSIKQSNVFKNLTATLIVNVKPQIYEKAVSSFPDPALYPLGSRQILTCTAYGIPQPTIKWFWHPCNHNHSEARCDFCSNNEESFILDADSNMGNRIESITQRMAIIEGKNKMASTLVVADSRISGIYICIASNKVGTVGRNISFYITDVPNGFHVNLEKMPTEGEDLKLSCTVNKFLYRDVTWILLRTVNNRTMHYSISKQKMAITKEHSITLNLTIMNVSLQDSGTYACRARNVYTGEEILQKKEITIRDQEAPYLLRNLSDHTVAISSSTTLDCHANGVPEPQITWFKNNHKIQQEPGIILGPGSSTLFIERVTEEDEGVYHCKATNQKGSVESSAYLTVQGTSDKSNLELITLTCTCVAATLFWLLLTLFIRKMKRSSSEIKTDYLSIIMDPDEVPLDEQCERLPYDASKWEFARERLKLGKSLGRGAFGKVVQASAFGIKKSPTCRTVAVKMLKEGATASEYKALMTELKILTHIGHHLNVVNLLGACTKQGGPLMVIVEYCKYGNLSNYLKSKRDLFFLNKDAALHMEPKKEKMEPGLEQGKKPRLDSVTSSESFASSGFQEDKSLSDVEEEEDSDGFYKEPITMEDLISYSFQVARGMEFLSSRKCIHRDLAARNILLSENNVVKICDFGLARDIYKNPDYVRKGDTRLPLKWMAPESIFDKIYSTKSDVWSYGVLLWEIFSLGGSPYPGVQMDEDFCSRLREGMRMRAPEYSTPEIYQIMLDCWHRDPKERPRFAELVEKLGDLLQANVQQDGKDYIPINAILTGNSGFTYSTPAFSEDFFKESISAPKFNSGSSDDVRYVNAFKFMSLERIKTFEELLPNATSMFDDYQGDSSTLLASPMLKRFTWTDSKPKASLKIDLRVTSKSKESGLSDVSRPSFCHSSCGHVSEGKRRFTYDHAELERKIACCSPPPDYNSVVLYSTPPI

Structure (SMILES)	IC50 [1]	IC50 [2]	Ki [2]	IC50 (Progesterone receptor)	IC50 (Cannabinoid receptor 1)	IC50 (Cytochrome P450 3A4)	Ki (Cytochrome P450 3A4)	IC50 [3]	Ki [3]	IC50 [4]	Ki [4]	IC50 [5]	IC50 (Progesterone receptor; read-out: IC50)	Ki (Progesterone receptor; read-out: Ki)	IC50 ([4]; read-out: IC50)	Ki ([4]; read-out: Ki)
C#CCN(C)[C@H](C)Cc1ccccc1 [SELEGILINE]	Not Active	Not Active	Not Active	Not Active	Not Active	Not Active	Not Active	Not Active	Not Active	Not Active	Not Active	Not Active				
CN[C@@H]1[C@H](O)[C@H](NC)[C@H]2O[C@@]3(O)C(=O)C[C@@H](C)O[C@H]3O[C@@H]2[C@H]1O [SPECTINOMYCIN]	Not Active	Not Active	Not Active	Not Active	Not Active	Not Active	Not Active	Not Active	Not Active	Not Active	Not Active	Not Active				
Nc1ccc(S(=O)(=O)Nc2ncccn2)cc1 [SULFADIAZINE]	Not Active	Not Active	Not Active	Not Active	Not Active	Not Active	Not Active	Not Active	Not Active	Not Active	Not Active	Not Active				
COc1ncnc(NS(=O)(=O)c2ccc(N)cc2)c1OC [SULFADOXINE]	Not Active	Not Active	Not Active	Not Active	Not Active	Not Active	Not Active	Not Active	Not Active	Not Active	Not Active	Not Active				
Nc1ccc(S(=O)(=O)Nc2nccs2)cc1 [SULFATHIAZOLE]	Not Active	Not Active	Not Active	Not Active	Not Active	Not Active	Not Active	Not Active	Not Active	Not Active	Not Active	Not Active				
C[C@]12CC[C@H]3[C@@H](CCC4=CC(=O)CC[C@@]43C)[C@@H]1CC[C@@H]2O [TESTOSTERONE]	Not Active				Not Active	Not Active	Not Active	Not Active	Not Active	Not Active	Not Active	Not Active	1930 nM	252 nM		
C[C@@H]1C[C@H]2[C@@H]3CCC4=CC(=O)C=C[C@]4(C)C3=CC[C@]2(C)[C@H]1C(=O)CN1CCN(c2cc(N3CCCC3)nc(N3CCCC3)n2)CC1 [TIRILAZAD]	Not Active	Not Active	Not Active	Not Active	Not Active	Not Active	Not Active	Not Active	Not Active			Not Active			2500 nM	2430 nM
NC[C@H]1O[C@H](O[C@H]2[C@H](O)[C@@H](O[C@H]3O[C@H](CO)[C@@H](O)[C@H](N)[C@H]3O)[C@H](N)C[C@@H]2N)[C@H](N)C[C@@H]1O [TOBRAMYCIN]	Not Active	Not Active	Not Active	Not Active	Not Active	Not Active	Not Active	Not Active	Not Active	Not Active	Not Active	Not Active				
O=c1n(CCCN2CCN(c3cccc(Cl)c3)CC2)nc2ccccn12 [TRAZODONE]	Not Active	Not Active	Not Active	Not Active	Not Active	Not Active	Not Active					Not Active				
O=C(O)C(Cl)(Cl)Cl [TRICHLOROACETIC ACID]	Not Active	Not Active	Not Active	Not Active	Not Active	Not Active	Not Active	Not Active	Not Active	Not Active	Not Active	Not Active				
CC(=O)O[C@H]1C[C@@H]2CC[C@@H]3[C@H](CC[C@@]4(C)[C@H]3C[C@H]([N+]3(C)CCCCC3)[C@@H]4OC(C)=O)[C@@]2(C)C[C@@H]1N1CCCCC1.[Br-] [VECURONIUM BROMIDE]	Not Active	Not Active	Not Active	Not Active	Not Active	Not Active	Not Active	Not Active	Not Active	Not Active	Not Active	Not Active				
